Assay [1] addresses T1, Heat shock factor protein 1 (Mus musculus, UniProt P38532).
T1 sequence (P38532 whole entry): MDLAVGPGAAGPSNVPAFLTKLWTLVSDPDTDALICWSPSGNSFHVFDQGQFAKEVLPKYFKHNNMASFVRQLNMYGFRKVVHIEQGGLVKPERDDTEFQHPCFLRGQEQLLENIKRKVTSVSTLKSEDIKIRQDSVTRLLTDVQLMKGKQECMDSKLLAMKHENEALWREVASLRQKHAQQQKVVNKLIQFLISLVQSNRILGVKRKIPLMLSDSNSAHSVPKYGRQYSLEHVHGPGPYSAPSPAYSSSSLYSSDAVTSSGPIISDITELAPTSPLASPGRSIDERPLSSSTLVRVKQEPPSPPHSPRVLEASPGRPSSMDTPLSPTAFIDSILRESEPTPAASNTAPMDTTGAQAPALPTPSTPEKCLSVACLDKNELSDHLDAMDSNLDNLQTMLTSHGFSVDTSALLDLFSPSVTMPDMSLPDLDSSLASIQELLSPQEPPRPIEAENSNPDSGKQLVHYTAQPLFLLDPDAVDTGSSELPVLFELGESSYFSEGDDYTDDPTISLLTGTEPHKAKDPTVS
The assay can be described thus: decrease of HSF1-responsive luciferase luminescence – cell-based, NIH3T3, dose retest, confirmation (AID 2382).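 Further: NIH3T3 fibroblasts with HSF1-driven luciferase reporter stressed by proteasome inhibitor MG132; luminescence from HSF1-driven luciferase expression after 8 hours of MG132 stress.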 The class given is functional.

Assay [2] deals with Scavenger receptor class B member 1 (Mus musculus, UniProt Q61009). The assay can be described thus: mouse SR-BI DiI-HDL uptake blockers – ldlA[mSR-BI] cells, fluorescence, cherry pick, dose response (AID 493194).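 Further: cellular uptake of fluorescent DiI-labeled HDL measured as cell fluorescence.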 The class given is functional, cell-based.
Scavenger receptor class B member 1, sequence (Q61009 whole entry): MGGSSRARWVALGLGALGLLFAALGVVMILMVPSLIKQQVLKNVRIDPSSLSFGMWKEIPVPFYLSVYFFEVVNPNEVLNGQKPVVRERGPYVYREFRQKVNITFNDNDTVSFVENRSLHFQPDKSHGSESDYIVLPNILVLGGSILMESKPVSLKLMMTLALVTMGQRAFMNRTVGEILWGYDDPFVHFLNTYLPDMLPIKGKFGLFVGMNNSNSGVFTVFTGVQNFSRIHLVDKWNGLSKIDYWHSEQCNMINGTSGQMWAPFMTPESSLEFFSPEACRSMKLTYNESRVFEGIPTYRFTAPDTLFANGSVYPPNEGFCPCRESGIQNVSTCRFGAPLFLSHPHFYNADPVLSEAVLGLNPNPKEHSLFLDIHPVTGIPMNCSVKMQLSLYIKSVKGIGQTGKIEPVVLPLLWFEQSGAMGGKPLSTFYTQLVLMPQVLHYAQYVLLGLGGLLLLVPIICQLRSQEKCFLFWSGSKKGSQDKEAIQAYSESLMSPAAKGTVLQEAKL
For assay [3], the target named is Trypsin (Sus scrofa, UniProt P00761). The assay can be described thus: trypsin protease activity blockade – biochemical, quenched peptide fluorescence, cherry-pick, selectivity assay for Rce1 protease inhibitor project, dose response (AID 488789).
Trypsin, sequence (P00761 whole entry): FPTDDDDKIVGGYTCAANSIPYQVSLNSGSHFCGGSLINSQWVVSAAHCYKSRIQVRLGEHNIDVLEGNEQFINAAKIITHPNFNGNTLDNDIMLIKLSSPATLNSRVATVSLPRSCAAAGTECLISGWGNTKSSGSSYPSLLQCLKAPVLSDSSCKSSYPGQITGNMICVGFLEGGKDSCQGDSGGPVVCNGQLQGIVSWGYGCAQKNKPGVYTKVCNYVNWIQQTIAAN
The target in assay [4] is Wee1-like protein kinase (Homo sapiens, UniProt P30291). Briefly: HeLa cell cycle G2/M accumulation – FACS, mechanism study for Wee1 degradation inhibitor project, late-stage follow-up, panel member Wee1 Degradation (AID 2088).
Wee1-like protein kinase, sequence (P30291 whole entry): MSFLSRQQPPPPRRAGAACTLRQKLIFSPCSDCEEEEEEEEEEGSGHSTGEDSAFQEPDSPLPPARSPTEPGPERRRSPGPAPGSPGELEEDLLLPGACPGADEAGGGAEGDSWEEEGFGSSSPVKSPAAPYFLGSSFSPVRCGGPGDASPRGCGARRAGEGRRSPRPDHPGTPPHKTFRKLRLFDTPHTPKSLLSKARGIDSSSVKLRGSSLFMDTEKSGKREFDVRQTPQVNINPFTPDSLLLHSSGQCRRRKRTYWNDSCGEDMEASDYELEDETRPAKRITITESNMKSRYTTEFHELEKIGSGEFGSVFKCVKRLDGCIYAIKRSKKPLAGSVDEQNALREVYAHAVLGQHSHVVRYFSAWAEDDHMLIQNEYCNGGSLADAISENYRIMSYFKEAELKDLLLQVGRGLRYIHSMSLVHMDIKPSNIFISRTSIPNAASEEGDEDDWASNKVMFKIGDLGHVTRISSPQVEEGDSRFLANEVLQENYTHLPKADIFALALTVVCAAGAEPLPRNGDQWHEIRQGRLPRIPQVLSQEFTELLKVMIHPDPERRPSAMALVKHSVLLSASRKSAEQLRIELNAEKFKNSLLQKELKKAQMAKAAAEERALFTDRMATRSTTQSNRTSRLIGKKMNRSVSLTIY
Assay [5] concerns the target G2/mitotic-specific cyclin-B1 (Homo sapiens, UniProt P14635). Briefly: HeLa cell cycle G2/M accumulation – FACS, mechanism study for Wee1 degradation inhibitor project, late-stage follow-up, panel member Cyclin B Degradation (AID 2088).
The nature of assay [6]: cells. It counts as functional, cell-based.
The nature of assay [7]: cells. The class given is functional, cell-based. The source holds these as a separate data set.
Assay [8] deals with ORF 73 (Human herpesvirus 8, UniProt O40947). The assay can be described thus: KSHV LANA DNA-binding disruption – biochemical, fluorescence polarization, cherry-picked samples, dose response (AID 504725).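 Further: fluorescence polarization of a labeled DNA duplex reporting LANA DNA binding; potency is for inhibitors that block LANA binding to the DNA.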 The arrangement: species or system Human gammaherpesvirus 8.
ORF 73, sequence (O40947 whole entry): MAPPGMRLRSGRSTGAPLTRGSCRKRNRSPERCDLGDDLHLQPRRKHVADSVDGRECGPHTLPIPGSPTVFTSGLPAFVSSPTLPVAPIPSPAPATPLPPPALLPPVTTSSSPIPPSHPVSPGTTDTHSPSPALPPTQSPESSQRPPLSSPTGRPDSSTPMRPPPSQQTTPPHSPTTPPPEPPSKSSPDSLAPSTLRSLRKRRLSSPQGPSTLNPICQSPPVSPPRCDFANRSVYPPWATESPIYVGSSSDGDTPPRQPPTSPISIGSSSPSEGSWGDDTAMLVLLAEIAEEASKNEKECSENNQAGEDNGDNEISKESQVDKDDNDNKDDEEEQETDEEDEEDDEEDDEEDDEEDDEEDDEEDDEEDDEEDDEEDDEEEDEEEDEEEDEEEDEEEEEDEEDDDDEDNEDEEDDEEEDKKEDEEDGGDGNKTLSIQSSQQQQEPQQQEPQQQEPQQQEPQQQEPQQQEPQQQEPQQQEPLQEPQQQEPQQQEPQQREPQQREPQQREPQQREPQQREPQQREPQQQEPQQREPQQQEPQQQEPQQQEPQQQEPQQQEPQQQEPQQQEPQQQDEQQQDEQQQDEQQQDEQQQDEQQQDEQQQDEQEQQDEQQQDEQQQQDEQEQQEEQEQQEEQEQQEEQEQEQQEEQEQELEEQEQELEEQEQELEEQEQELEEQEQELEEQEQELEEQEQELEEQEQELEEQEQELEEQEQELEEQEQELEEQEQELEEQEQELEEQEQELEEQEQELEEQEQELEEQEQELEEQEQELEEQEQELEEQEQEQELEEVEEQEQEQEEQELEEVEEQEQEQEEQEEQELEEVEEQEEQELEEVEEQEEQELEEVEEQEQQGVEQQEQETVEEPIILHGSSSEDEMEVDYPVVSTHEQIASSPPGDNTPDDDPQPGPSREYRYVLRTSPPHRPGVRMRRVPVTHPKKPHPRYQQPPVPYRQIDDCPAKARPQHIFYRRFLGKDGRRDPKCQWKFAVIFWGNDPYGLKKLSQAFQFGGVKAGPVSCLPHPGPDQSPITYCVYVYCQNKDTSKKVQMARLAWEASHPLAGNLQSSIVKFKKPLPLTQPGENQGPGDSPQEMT
A short description of assay [9]: HEK-293T viability loss after treatment – luminescence, T-cell screen hits, cytotoxicity control for TCR NF-kB inhibitor project, dose response (AID 489026).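 Further: cells exposed to compound about 14 hours before the viability readout.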 The class given is functional, cell-based.
Assay [10] has as its target T2, Corticotropin-releasing factor receptor 2/Corticotropin-releasing factor-binding protein (Homo sapiens, UniProt P24387+Q13324).
T2 sequence (Q13324 whole entry): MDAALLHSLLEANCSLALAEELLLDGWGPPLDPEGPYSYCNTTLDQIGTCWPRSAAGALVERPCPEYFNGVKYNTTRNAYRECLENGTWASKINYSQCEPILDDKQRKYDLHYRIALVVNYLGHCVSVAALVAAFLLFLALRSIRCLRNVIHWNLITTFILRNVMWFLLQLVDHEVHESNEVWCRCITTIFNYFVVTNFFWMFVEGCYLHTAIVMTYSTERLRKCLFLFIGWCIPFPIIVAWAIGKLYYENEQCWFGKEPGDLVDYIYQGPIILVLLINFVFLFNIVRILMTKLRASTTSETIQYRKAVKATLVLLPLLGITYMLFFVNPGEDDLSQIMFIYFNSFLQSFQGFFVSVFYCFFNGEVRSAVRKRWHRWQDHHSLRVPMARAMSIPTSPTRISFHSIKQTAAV
T2 sequence (P24387 whole entry): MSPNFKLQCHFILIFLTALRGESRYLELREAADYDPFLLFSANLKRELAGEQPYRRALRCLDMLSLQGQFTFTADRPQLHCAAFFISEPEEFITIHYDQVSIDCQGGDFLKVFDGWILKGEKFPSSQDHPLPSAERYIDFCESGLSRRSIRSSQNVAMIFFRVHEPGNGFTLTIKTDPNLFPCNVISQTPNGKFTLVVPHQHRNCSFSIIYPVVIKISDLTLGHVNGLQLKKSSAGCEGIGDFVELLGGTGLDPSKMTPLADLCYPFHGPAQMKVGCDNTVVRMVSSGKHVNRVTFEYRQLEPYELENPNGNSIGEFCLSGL
The assay can be described thus: activators of CRF receptor 2 with binding protein – uHTS hits, confirmation (AID 602473). The class given is functional. The note with it: read-out: EC50_Mean.

For assay [11], the target named is Metabotropic glutamate receptor 4 (Rattus norvegicus, UniProt P31423). The assay can be described thus: Modulation of the Metabotropic Glutamate Receptor mGluR4: Rat PAM Potency. [Related pubchem assays (depositor defined):AID2437, AID2807]. It counts as functional.
Metabotropic glutamate receptor 4, sequence (P31423 whole entry): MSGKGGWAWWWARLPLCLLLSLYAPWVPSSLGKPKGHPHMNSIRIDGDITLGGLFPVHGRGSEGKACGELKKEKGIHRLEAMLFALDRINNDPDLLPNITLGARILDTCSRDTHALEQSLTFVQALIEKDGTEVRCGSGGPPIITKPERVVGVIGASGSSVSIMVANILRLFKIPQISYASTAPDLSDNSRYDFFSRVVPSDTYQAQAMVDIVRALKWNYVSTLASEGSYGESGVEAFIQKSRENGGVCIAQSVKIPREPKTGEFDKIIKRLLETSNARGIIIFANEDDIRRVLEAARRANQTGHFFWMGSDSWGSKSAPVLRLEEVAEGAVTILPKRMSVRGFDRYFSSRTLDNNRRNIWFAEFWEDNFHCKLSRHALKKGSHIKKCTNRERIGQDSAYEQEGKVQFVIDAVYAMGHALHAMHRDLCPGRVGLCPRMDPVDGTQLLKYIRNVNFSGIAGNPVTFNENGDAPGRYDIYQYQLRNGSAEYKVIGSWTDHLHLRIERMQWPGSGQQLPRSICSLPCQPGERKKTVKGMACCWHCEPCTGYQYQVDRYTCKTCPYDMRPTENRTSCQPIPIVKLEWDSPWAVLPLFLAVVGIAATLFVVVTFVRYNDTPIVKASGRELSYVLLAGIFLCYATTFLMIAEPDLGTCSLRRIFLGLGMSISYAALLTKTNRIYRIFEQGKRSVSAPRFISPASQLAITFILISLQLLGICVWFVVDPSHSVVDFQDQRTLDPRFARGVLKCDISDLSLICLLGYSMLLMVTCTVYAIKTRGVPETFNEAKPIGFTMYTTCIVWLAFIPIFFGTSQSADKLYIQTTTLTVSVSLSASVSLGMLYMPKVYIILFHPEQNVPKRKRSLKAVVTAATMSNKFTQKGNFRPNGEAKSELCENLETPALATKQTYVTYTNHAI
A short description of assay [12]: Cytotoxicity screening for potential Inhibitors of Bacterial Capsule Biogenesis. [Related pubchem assays (depositor defined):AID488970]. It counts as functional.
The subject of assay [13] is HeLa. Briefly: ATP-based viability loss in HeLa cells – cell-based, CellTiter-Glo luminescence, cherry-pick samples, cytotoxicity control for MITF activator project, dose response (AID 540259). It counts as functional. The note with it: Homo sapiens. For orientation: ATP-based viability assays read luminescence as a measure of living cells.

Calls of active or inactive are those of the source.

G2/mitotic-specific cyclin-B1, sequence (P14635 whole entry): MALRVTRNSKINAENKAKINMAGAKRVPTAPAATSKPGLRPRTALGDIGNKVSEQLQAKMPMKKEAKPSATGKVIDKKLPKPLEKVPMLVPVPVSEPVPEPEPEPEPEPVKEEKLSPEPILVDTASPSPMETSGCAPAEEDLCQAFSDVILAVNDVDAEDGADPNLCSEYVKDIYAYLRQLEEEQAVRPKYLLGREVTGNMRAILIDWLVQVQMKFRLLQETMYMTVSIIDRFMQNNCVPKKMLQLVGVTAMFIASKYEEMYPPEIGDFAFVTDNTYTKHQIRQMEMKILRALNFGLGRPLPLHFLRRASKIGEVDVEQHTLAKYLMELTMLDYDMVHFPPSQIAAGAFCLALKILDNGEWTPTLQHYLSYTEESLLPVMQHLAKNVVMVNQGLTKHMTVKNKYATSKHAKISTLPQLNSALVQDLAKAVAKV

For the molecule `CCOc1ccccc1/C=C/c1onc(C)c1S(=O)(=O)N1CCC(C(=O)NC(C)(C)C)CC1`, the EC50 in assay [1] is > 195 µM (not active). Also, the AC50 in assay [2] is 50 nM (active).

For `Cc1ccc(O)c(CNc2cnc3ccccc3c2)c1`, in assay [3], the AC50 was 12.8 µM (active).

Consider `Cc1cc(=O)[nH]c(-n2nc(C)cc2NC(=O)CCc2ccccc2)n1`, for which the EC50 is > 16.6 µM (active) in assay [4] and > 49.7 µM (inactive) in assay [5].

Turning to `O=C(OCCN1C(=O)c2cccc3c(N4CCOCC4)ccc(c23)C1=O)c1ccc(Cl)cc1`, the EC50 is > 350 µM (not active) in assay [6], > 350 µM (not active) in assay [7] and 5.89 µM (active) in [10]. The AC50 in [8] was 29.3 µM (active). Further, the IC50 in [9] is > 80 µM (inactive).

`CC1(c2ccccc2)CC(=O)N(c2ccc(NC(=O)c3ccccn3)cc2Cl)C1=O` (stereo not drawn): the EC50 in assay [11] is 540 nM (active).

For the molecule `CCc1ccc(NC(=O)c2ccc3nc(N)sc3c2)cc1`, the CC50 in assay [12] is 54 µM (active). Further, the AC50 in assay [13] is 47.4 µM (active).

The term AC50 denotes the concentration giving half of the maximal activity seen. A word on the IC50: it is the concentration needed to halve the response being measured. For orientation: CC50 means the concentration giving 50% cytotoxicity.

For the origin of these results see ChEMBL document CHEMBL1201862, “PubChem BioAssay data set” (2004).
